According to patent US9573972B2, “Nurotoxic sterol glycosides” (priority 2008, dated 2017):
Entries after “also recorded” stand apart in the source; their conditions may differ.

How the values were obtained:
male CD-1 mice = assay: Leg extension reflex test, SG-fed mice; assay type: in vivo, mouse
Excerpt: Five-month old male CD-1 mice (30.1-35.7 g, 7.5 cm-8.8 cm) were purchased from Charles River (Wilmington, Mass.). Adult mice were chosen to mimic the mean age of onset of ALS-PDC (Kurland, L. T. (1988a) Trends Neurosci. 11, 51-4; Kurland, L. T., et al. (1994) Amyotrophic lateral sclerosis-parkinsonism-dementia complex on Guam: epidemiologic and etiological perspectives. 109-131). Thirty mice for the SG study were randomly divided into 2 groups (14 control and 16 experimental animals). All animals were housed singly in a virus-free barrier facility in a room maintained at 22° C. under a 12 hour light/dark cycle. The mice were provided ad libitum access to food and water.
The synthetic SG was mixed with finely ground Purina Chow mouse pellets (Mouse Diet™, Purina) to create the experimental pellets with a SG content of 1000 μg per pellet. Dry materials were blended with a sterile silicon spatula. For every 5 g of standard feed, 2.5 mL of doubly-distilled water (dd)H2O was added and the dough was kneaded and round up into pellets. […] SG feeding was conducted daily for 15 weeks and mice were behaviorally monitored until sacrifice at 35 weeks (time point 1) or 52 weeks (time point 2).
Leg extension reflex test: The leg extension reflex test was used as a measure of motor neuron dysfunction (Barneoud et al., 1999). […] The leg extension reflex was measured three times per week in each animal. […]

[1] = tested on: Ionized calcium-binding adaptor molecule-1 (microglia); assay: Anti-IBA-1 immunofluorescence, microglia counts; assay type: in vivo, mouse; details: SG-fed group over time (35 to 52 wk)
Experimental: Tissue-mounted slides were processed for fluorescence microscopy as follows: Sections were rinsed in coplin jars for 45 minutes at room temperature (RT) in three changes of PBS. Sections were then incubated at RT for 30 minutes in a blocking permeabilization solution made of 5% normal goat serum (NGS), 5% normal rabbit serum (NRS) or 5% BlokHen II (Ayes Labs, Inc., Tigard, Oreg.), 0.05% Triton X-100 and PBS. Subsequently, the blocking solution was tipped off and the slides were rinsed in PBS for 2 minutes. […]

CC[C@H](/C=C/[C@@H](C)[C@H]1CC[C@H]2[C@@H]3CC=C4C[C@@H](O[C@@H]5O[C@H](CO)[C@@H](O)[C@H](O)[C@H]5O)CC[C@]4(C)[C@H]3CC[C@]12C)C(C)C [SG, Stigmasterol β-D-Glucopyranoside]
Leg extension (male CD-1 mice; SG-fed vs control, Time-point 2 (52 wk)): Leg extension* (*p < 0.05)
Leg extension reflex test performance (score 0-4) (male CD-1 mice; SG-fed, duration of study): decreased; also recorded: steady decline in performance
Anti-IBA-1 immunoreactive cells over time [1]: Anti-IBA-1 immunoreactive cells (SG-fed group over time) (ns)
